Counter-ions that a name gives are not always drawn.

Broadly, the EC50 is the concentration that produces a half-maximal response. A high value points to lower potency in that assay. By Emax is commonly meant the greatest response seen or fitted, relative to the assay's reference. What is called melting point is the temperature, or range, at which the solid turns liquid. The term pEC50 denotes the EC50 on a negative log10 scale, so that one unit is a factor of ten. A lower pEC50 goes with a high EC50.

Series [1] addresses T1, human mGluR5a receptor (Homo sapiens, UniProt P41594).
T1 construct: host or cells: HEK293A (monoclones H10H and H12H)
Kind of series: Functional Assay 2: Ca2+ mobilization, HEK cells with human mGluR5a receptor (H10H cell line). The settings on record: for EC50 / Emax: H10H cell line; for EC50: glutamate EC20; for Emax: HEK293, maximum average response at a single concentration, relative to glutamate ECMax. The series is classed as cell-based. On the procedure: Human mGluR5a cDNA in pCMV6-XL6 mammalian expression plasmid was purchased from OriGene Technologies, Inc. (catalogue number SC326357) and subcloned into pcDNA3.1(−). […] Monoclones were named for the species (“H” for human) plus the location on the plate (e.g. “10H”).
The following day, the growth medium was removed and the cells were washed with assay buffer containing 1× Hank's balanced salt solution (Invitrogen, Carlsbad, Calif.), 20 mM HEPES, 2.5 mM probenecid, pH 7.4 and left with 20 μL of this reagent. Following this step, the cells were loaded with calcium indicator dye, fluo-4 AM, to a final concentration of 2 μM and incubated for 40-45 min at 37° C. The dye solution was removed and replaced with assay buffer. Cell plates were held for 10-15 min at room temperature and were then loaded into the Functional Drug Screening System 6000 (FDSS 6000, Hamamatsu, Japan).
After establishment of a fluorescence baseline for about 3 seconds, the compounds of the present invention were added to the cells, and the response in cells was measured. 2.3 minutes later an EC20 concentration of the mGluR5 receptor agonist glutamate was added to the cells, and the response of the cells was measured for about 1.7 minutes. All test compounds were dissolved and diluted to a concentration of 10 mM in 100% DMSO and then serially diluted into assay buffer for a 2× stock solution in 0.6% DMSO; stock compounds were then added to the assay for a final DMSO concentration of 0.3% after the first addition to the assay well. Calcium fluorescence measures were recorded as fold over basal fluorescence; raw data was then normalized to the maximal response to glutamate.
The concentration-response curves of compounds of the present invention, obtained in the presence of EC20 of mGluR5 receptor agonist glutamate to determine positive allosteric modulation, were generated using Microsoft Excel with IDBS XLfit add-ins. The raw data file containing all time points was used as the data source in the analysis template. This was saved by the FDSS as a tab-delimitted text file. Data were normalized using a static ratio function (F/F0) for each measurement of the total 350 values per well divided by each well's initial value. […] This is sufficient time to capture the peak amplitude of the cellular calcium response. […] Each of the three values collected at each concentration of test compound were weighted evenly. […] These two methods are in good agreement for curves with a clear plateau at the high concentration range.
Background: Calcium flux is commonly read through the fluorescence of an indicator in the cells.

Series [2] concerns the target T2, human mGluR5 receptor (Homo sapiens, UniProt P41594).
T2 construct: expressed in transfected cells; host or cells: HEK-293
Briefly: Functional Assay 1: intracellular Ca2+ mobilization, positive allosteric modulation of glutamate EC20 response. The settings on record: for Emax: maximum % effect relative to glutamate ECMax. The series is classed as cell-based.
Method: HEK-293 cells were stable transfected with human mGluR5a cDNA in expression vector pcDNA4/TO. For Assay 1, these human mGluR5 receptor over-expressing HEK-293 cells were grown at a density of 40,000 cells/well in PDL-coated 384-well plates. The following day, cells were preloaded with the calcium-sensing dye Fluo-4 AM and various concentrations of test compound were added in the absence of exogenous glutamate to test for direct agonist activity. Shortly (2.5 min) thereafter, an EC20 equivalent of glutamate (˜0.2 μM) was added. The fluorescence signal was monitored using a Hamamatsu Functional Drug Screening System (FDSS) fluorescence plate reader following the addition of compound alone (direct agonist response) and then the further addition of an EC20 of glutamate (positive allosteric modulation response). The pEC50 was defined as the negative log of the test compound concentration which produced an increase in the glutamate EC20-mediated response that was 50% of maximum. Individual amplitudes were expressed as % effect by multiplying each amplitude by 100 and then dividing the product by the mean of the amplitudes derived from the glutamate ECMax-treated wells. Emax values reported in this application are defined as the maximum % effect obtained in a concentration-response curve.

Setting [3] is: human mGluR5 over-expressing HEK-293 cells, glutamate EC20 (~0.2 μM), updated value.

T1 sequence (P41594 21-1180 isoform P41594-2 limits assumed): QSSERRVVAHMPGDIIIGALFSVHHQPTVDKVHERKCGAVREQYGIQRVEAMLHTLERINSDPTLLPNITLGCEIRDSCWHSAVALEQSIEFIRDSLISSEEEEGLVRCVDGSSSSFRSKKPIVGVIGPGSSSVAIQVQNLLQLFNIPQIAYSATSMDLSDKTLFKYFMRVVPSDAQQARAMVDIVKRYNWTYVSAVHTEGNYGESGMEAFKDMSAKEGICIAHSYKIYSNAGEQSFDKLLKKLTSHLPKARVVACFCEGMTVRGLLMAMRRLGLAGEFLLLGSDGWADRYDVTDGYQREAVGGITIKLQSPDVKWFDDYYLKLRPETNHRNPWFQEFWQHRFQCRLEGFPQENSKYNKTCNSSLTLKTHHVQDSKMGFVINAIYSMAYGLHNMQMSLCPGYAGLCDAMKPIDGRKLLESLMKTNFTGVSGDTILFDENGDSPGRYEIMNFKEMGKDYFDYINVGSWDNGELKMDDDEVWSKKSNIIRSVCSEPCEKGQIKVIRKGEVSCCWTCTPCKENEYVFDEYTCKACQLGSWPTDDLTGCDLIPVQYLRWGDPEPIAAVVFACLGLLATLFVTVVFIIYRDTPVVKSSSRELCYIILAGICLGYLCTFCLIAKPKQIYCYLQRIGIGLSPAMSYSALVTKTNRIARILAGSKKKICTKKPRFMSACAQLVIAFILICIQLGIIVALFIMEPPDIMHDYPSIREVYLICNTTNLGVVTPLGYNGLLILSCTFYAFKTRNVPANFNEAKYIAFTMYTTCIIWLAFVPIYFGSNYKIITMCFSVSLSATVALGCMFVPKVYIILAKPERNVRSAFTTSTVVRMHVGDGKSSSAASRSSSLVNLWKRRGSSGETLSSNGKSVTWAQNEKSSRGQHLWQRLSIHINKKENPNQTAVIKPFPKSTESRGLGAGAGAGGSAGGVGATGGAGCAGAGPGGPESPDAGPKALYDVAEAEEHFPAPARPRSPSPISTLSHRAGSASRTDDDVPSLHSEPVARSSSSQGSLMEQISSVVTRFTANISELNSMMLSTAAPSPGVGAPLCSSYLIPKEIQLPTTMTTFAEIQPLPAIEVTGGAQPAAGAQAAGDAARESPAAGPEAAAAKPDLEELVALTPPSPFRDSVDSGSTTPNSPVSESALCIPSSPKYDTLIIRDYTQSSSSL
T2 sequence (P41594 21-1180 isoform P41594-2 limits assumed): as above

For the molecule `O=C1c2sc(OCc3ccccc3)nc2CCN1c1ccc(F)cc1` [Compound 1, 5-(4-fluorophenyl)-6,7-dihydro-2-(phenylmethoxy)-thiazolo[5,4-c]pyridin-4(5H)-one], the EC50 was 309 nM in series [1]; 1290 nM in series [2] (setting [3]); 851 nM in series [2] (original value, which was updated as compound was further tested). In addition, the Emax turned out to be 57% in series [1] and 64% in series [2].
`O=C1NCCc2nc(COc3ccccc3)sc21` [Compound 2, 6,7-dihydro-2-(phenoxymethyl)-thiazolo[5,4-c]pyridin-4(5H)-one] yielded a melting point of 170.5 °C. In series [1], this molecule gave an EC50 of over 10000 nM and an Emax of 84%.
With `O=C1c2sc(COc3ccccc3)nc2CCN1CC1CCOCC1` [Compound 3, 6,7-dihydro-2-(phenoxymethyl)-5-[(tetrahydro-2H-pyran-4-yl)methyl]-thiazolo[5,4-c]pyridin-4(5H)-one], in series [1], a half-maximal effect (EC50) was put at 2290 nM and the maximum response (Emax) was 78%.
In series [1], `COCCN1CCc2nc(COc3ccccc3)sc2C1=O` [Compound 4, 6,7-dihydro-5-(2-methoxyethyl)-2-(phenoxymethyl)-thiazolo[5,4-c]pyridin-4(5H)-one] showed an EC50 of over 10000 nM and an Emax of 69%.
On the same counts, the results for `Cc1ccc(N2CCc3nc(COc4ccccc4)sc3C2=O)nc1` [Compound 5, 6,7-dihydro-5-(5-methyl-2-pyridinyl)-2-(phenoxymethyl)-thiazolo[5,4-c]pyridin-4(5H)-one] are 1200 nM and 84.5%.
The molecule `O=C1c2sc(COc3ccc(F)cc3)nc2CCN1c1ccc(F)cc1` [Compound 6, 2-[(4-fluorophenoxy)methyl]-5-(4-fluorophenyl)-6,7-dihydro-thiazolo[5,4-c]pyridin-4(5H)-one] had a melting point of over 280 °C. In series [1], this molecule showed an EC50 of 457 nM and an Emax of 75%.
The molecule `O=C1c2sc(COc3ccccc3)nc2CCCN1c1ccc(F)cc1` [Compound 11, 5-(4-fluorophenyl)-5,6,7,8-tetrahydro-2-(phenoxymethyl)-4H-thiazolo[5,4-c]azepin-4-one] had a melting point of 120.4 °C. Moreover, in series [1], a half-maximal response (EC50) required 214 nM and the Emax stood at 81%.
On to `CN1CCc2nc(OCc3ccccc3)sc2C1=O` [Compound 24, 6,7-dihydro-5-methyl-2-(phenylmethoxy)-thiazolo[5,4-c]pyridin-4(5H)-one], for which, in series [1], the EC50 was 3470 nM and the Emax came to 45%.
In series [1], `C[C@@H](N1CCc2nc(COc3ccc(F)cc3)sc2C1=O)C(C)(C)C` [Compound 34, 2-[(4-fluorophenoxy)methyl]-6,7-dihydro-5-[(1R)-1,2,2-trimethylpropyl]-thiazolo[5,4-c]pyridin-4(5H)-one] had an EC50 of 1480 nM and an Emax of 48%.
The corresponding values for `COc1ccccc1N1CCc2nc(COc3ccccc3F)sc2C1=O` [Compound 36, 2-[(2-fluorophenoxy)methyl]-6,7-dihydro-5-(2-methoxyphenyl)-thiazolo[5,4-c]pyridin-4(5H)-one] are 2000 nM and 71%.
Turning to `O=C1c2sc(COc3ccccc3)nc2CCN1c1ccccn1` [Compound 45, 6,7-dihydro-2-(phenoxymethyl)-5-(2-pyridinyl)-thiazolo[5,4-c]pyridin-4(5H)-one], in series [1], the EC50 was 832 nM and the Emax was determined as 85%.
In series [1], `O=C1c2sc(COc3ccccc3)nc2CCN1c1ccc(F)cn1` [Compound 47, 5-(5-fluoro-2-pyridinyl)-6,7-dihydro-2-(phenoxymethyl)-thiazolo[5,4-c]pyridin-4(5H)-one] had an EC50 of 251 nM and an Emax of 82%.
On the same counts, the results for `O=C1c2sc(COc3ccccc3)nc2CCN1c1cccnc1` [Compound 48, 6,7-dihydro-2-(phenoxymethyl)-5-(3-pyridinyl)-thiazolo[5,4-c]pyridin-4(5H)-one] are 4680 nM and 78%.
Turning to `O=C1c2sc(COc3ccccc3)nc2CCN1c1ccncc1` [Compound 49, 6,7-dihydro-2-(phenoxymethyl)-5-(4-pyridinyl)-thiazolo[5,4-c]pyridin-4(5H)-one], in series [1], the pEC50 was 5.57.
`O=C1c2sc(COc3ccccc3)nc2CCN1c1ncccc1F` [Compound 50, 5-(3-fluoro-2-pyridinyl)-6,7-dihydro-2-(phenoxymethyl)-thiazolo[5,4-c]pyridin-4(5H)-one]: in series [1], a half-maximal effect (EC50) was put at 1380 nM and the Emax was 69%.
In series [1], `Cc1ccnc(N2CCc3nc(COc4ccccc4)sc3C2=O)c1` [Compound 51, 6,7-dihydro-5-(4-methyl-2-pyridinyl)-2-(phenoxymethyl)-thiazolo[5,4-c]pyridin-4(5H)-one] gave an EC50 of 3630 nM and an Emax of 75%.
In series [1], `Cc1cccnc1N1CCc2nc(COc3ccccc3)sc2C1=O` [Compound 52, 6,7-dihydro-5-(3-methyl-2-pyridinyl)-2-(phenoxymethyl)-thiazolo[5,4-c]pyridin-4(5H)-one] gave an EC50 of 1350 nM and an Emax of 82%.
In series [1], `O=C1c2sc(COc3ccccc3)nc2CCN1c1ccncc1F` [Compound 58, 5-(3-fluoro-4-pyridinyl)-6,7-dihydro-2-(phenoxymethyl)-thiazolo[5,4-c]pyridin-4(5H)-one] gave an EC50 of 562 nM and an Emax of 71%.
On the same counts, the results for `CC(C)N1CCc2nc(COc3ccccc3)sc2C1=O` [Compound 63, 6,7-dihydro-5-(1-methylethyl)-2-(phenoxymethyl)-thiazolo[5,4-c]pyridin-4(5H)-one] are 2630 nM and 37.5%.
On to `CC(C)N1CCc2nc(COc3cccc(F)c3)sc2C1=O` [Compound 64, 2-[(3-fluorophenoxy)methyl]-6,7-dihydro-5-(1-methylethyl)-thiazolo[5,4-c]pyridin-4(5H)-one], for which, in series [1], the EC50 was over 30200 nM and the Emax is 18%.
`O=C1NCCc2nc(OCc3ccccc3)sc21` [Compound 65, 6,7-dihydro-2-(phenylmethoxy)-thiazolo[5,4-c]pyridin-4(5H)-one]: the EC50 in series [2] (setting [3]) was over 30200 nM. The molecule further displayed an Emax in series [2] of 25%.
For the molecule `N#Cc1cc(COc2nc3c(s2)C(=O)NCC3)ccc1F` [Compound 66, 2-fluoro-5-[[(4,5,6,7-tetrahydro-4-oxothiazolo[5,4-c]pyridin-2-yl)oxy]methyl]-benzonitrile], the EC50 in series [2] (setting [3]) is over 30200 nM. Besides, the Emax in series [2] was determined as 24%.
Consider `Cc1ccccc1COc1nc2c(s1)C(=O)NCC2` [Compound 67, 6,7-dihydro-2-[(2-methylphenyl)methoxy]-thiazolo[5,4-c]pyridin-4(5H)-one], for which, in series [1], the 50% effective concentration (EC50) is over 30200 nM and the Emax is 18%.
On the same counts, the results for `Cc1cccc(COc2nc3c(s2)C(=O)NCC3)c1` [Compound 68, 6,7-dihydro-2-[(3-methylphenyl)methoxy]-thiazolo[5,4-c]pyridin-4(5H)-one] are over 30200 nM and 20%.
In the case of `O=C1NCCc2nc(OCc3ccccc3F)sc21` [Compound 69, 2-[(2-fluorophenyl)methoxy]-6,7-dihydro-thiazolo[5,4-c]pyridin-4(5H)-one trifluoroacetate], the EC50 in series [2] (setting [3]) is over 30200 nM. For the same molecule, the Emax in series [2] was 15%.
Molecule `O=C1NCCc2nc(OCc3cccc(F)c3)sc21` [Compound 70, 2-[(3-fluorophenyl)methoxy]-6,7-dihydro-thiazolo[5,4-c]pyridin-4(5H)-one trifluoroacetate] gave an EC50 in series [2] (setting [3]) of over 30200 nM. In series [2], this molecule registered an Emax of 15%.
The corresponding values for `O=C1NCCc2nc(OCc3ccc(F)cc3)sc21` [Compound 71, 2-[(4-fluorophenyl)methoxy]-6,7-dihydro-thiazolo[5,4-c]pyridin-4(5H)-one trifluoroacetate] are over 30200 nM and 8%.
Regarding `Cc1ccc(COc2nc3c(s2)C(=O)NCC3)cc1` [Compound 72, 6,7-dihydro-2-[(4-methylphenyl)methoxy]-thiazolo[5,4-c]pyridin-4(5H)-one], the EC50 in series [2] (setting [3]) is over 30200 nM. Moreover, the Emax in series [2] was 10%.
Consider `COc1cccc(COc2nc3c(s2)C(=O)N(c2ccc(F)cc2F)CC3)c1` [Compound 80, 5-(2,4-difluorophenyl)-6,7-dihydro-2-[(3-methoxyphenyl)methoxy]-thiazolo[5,4-c]pyridin-4(5H)-one], for which the EC50 in series [2] (setting [3]) is over 30200 nM. The molecule also had an Emax in series [2] of 26%.

These data come from patent US9040707B2, “Bicyclic thiazoles as allosteric modulators of mGluR5 receptors” (Janssen Pharmaceutica NV, priority 2009, dated 2015).
